Experimental data taken from patent US20070244076A1, “Site and Rate Selective Prodrug Formulations of D609 with Antioxidant and Anticancer Activity” (priority 2003, published 2007).
pIC50: −log10 of the molar value.

Key:
[1] = test system: sphingomyelin synthase (SMS); assay: Cellular SMS activity in U937 cells treated with drug; assay type: cell-based, Human; conditions: for inhibition of SMS activity: 177 μM, 0.5, 1 and 2 h
Experimental: Analysis of sphingomyelin synthase (SMS) activity: U937 cells (2×10^6/ml) were cultured with vehicle (0.5% DMSO) or 177 μM D609 or prodrug 2. After 0.5, 1 and 2 h incubation, the cells were harvested, washed and then homogenized in ice-cold lysis buffer (250 mM sucrose; 5 mM HEPES, pH 7.4; 1 mM phenylmethylsulfonyl fluoride; and 20 μg/ml each of chymostatin, leupeptin, antipain, and pepstatin) by 15 passages through a 27-gauge×0.5-inch needle. The cell lysates were first centrifuged at 1000×g for 10 min at 4° C. to remove all the unbroken cells and nuclei. The resultant supernatants were quantified for protein concentration using the Bio-Rad protein assay reagent (Bio-Rad, Hercules, Calif.) and assayed for SMS activity as follows: aliquots of the cell lysates containing 50 μg protein were preincubated for 10 min at 30° C. in a total volume of 50 μl of incubation buffer (50 mM Tris-HCl, pH 7.4; 25 mM KCl; and 0.5 mM EDTA). The reaction was started by addition of 2 nmol NBD C6-ceramide and 12 nmol PC to give a final volume of 50 μl and incubated for 30 min. The reaction was stopped by addition of 200 μl chloroform/methanol (1:1, v/v); the mixture was vortexed and kept on ice. The chloroform/methanol fraction was isolated, and the lipids were resolved by TLC (silica gel) in chloroform:methanol:15 mM CaCl2 (90:52.5:12) (Luberto and Hannun, 1998; Meng et al., 2004). The formation of NBD-C6-sphingomyelin was quantified by determination of the fluorescent intensity of NBD-C6-sphingomyelin using a phosphoimager. Values for blanks were subtracted from total values of NBD-C6-sphingmyelin to yield the amount of NBD-C6-sphingmyelin produced in each sample.
To validate if inhibition of SMS may mediate D609-induced tumor cell death, the cellular level of SMS activity in U937 cells treated with vehicle or D609 were studied. […] NBD-C6-ceramide and PC were incubated with the cell lysates containing 50 μg proteins for 30 min at 30° C. The formation of NBD-C6-sphingomyelin was analyzed by TLC and quantified by determination of the fluorescent intensity of NBD-C6-sphingomyelin using a phosphoimager. The results, shown in FIGS. 10B-10D, are expressed as percent of the control cultures with vehicle and presented as means±SEM (n=3). […] The levels of ceramide (FIG. 10B) and DAG (FIG. 10C) were analyzed by the DAG kinase assay, normalized to the levels of cellular phospholipid and expressed as pmole/nmole phophate (pi) or the ratio of ceramide and DAG (FIG. 10D). The results represent means±SEM (n=3).

[2] = test system: normal human diploid fibroblasts-WI38 cells; assay: MTT cell viability, WI38 normal fibroblasts; assay type: cell-based; conditions: for LD50: normal cells
[3] = test system: Jurkat T-cell leukemia cells; assay: MTT cell viability, Jurkat cells; assay type: cell-based, human
[4] = test system: STM91-01 malignant rhabdoid tumor cells; assay: MTT cell viability, STM91-01 cells; assay type: cell-based, human
[5] = test system: U937 cells; assay: U937 apoptosis, sub-G0/1 cells by flow cytometry; assay type: cell-based, Human; conditions: 177 μM, 24 h
Experimental: Apoptosis Assays: U937 cells (5×10^5/ml) were cultured with vehicle (0.5% DMSO) or 177 μM D609 or prodrug 2. After 24 h incubation, the cells were harvested, washed and then fixed in 70% ethanol at 4° C. for 24 h. They were stained with a PI staining solution (PBS containing PI 50 μg/ml; RNase A 100 U/ml; and 0.1 mM EDTA) for 2 h at room temperature before flow cytometric analysis (10,000 events/sample). The percentage of apoptotic cells was determined by quantification of the sub-G0/1 population using a FACS Caliber (Becton Dickinson, San Jose, Calif.).

[6] = test system: U937 cells; assay: MTT cell viability, U937 cells; assay type: cell-based, Human; conditions: for LD50: 48 h
Experimental: Cell viability assay: The MTT assay was used to quantify viable U937 cells (Hansen et al., 1989). U937 cells were harvested, washed and resuspended in complete medium at a concentration of 5×10^5 cells per ml. Aliquots (100 μl) of the cell suspension were added to wells of a 96-well microtiter plate with the addition of 100 μl of complete medium (control) or various concentrations of D609 or a D609 prodrug (diluted in complete medium). After 48 h incubation, the plates were centrifuged to remove the supernatants from the culture, and 50 μl of MTT at a concentration of 5 mg/ml in phosphate-buffered saline (PBS) was added to each well. The plates were incubated for 4 h at 37° C. to allow for the formation of a colored formazan. The formazan was solubilized by lysing the cells with 100 μl of lysis buffer containing 20 (w/v) % dodecylsulfate and 50 (v/v) % N,N-dimethyl formamide, pH 4.7. Absorbance of the formazan was measured at 595 nm using a Vmax plate reader (Molecular Devices, Sunnyvale, Calif.). The viability of the cells was expressed as a percent of control calculated by the formula Ad/Ac×100, where Ad and Ac, represent the absorbance of drug-treated and untreated control cells, respectively, and expressed as a percentage of control.
In this study, p-nitrophenyl-phosphorylcholine (pNPP, 40 mM) was incubated with 2 U/ml phospholipase C (Type XI from B. cereus) in the presence or absence of various concentrations of inhibitors for 2 hrs at 37° C. The amount of the cleaved substrate pNPP was quantified by determination of the optical density at 410 nm using an ELISA reader. The results are expressed as percent of vehicle control and presented as means±SEM (n=3) (FIG. 9A). NBD-C6-ceramide and PC were incubated with U937 cell lysates containing 50 μg protein in the presence or absence of various concentrations of inhibitors for 30 min at 30° C. The formation of NBD-C6-sphingomyelin as analyzed by TLC and quantified by determination of the fluorescent intensity of NBD-C6-sphingomyelin using a phosphorimager. The results are expressed as percent of vehicle control (FIG. 9B). […]

Row | Structure (SMILES) | inhibition of SMS activity [1] | LD50 [2] | LD50 [3] | LD50 [4] | apoptosis (sub-G0/1 cells) [5] | LD50 [6] | pIC50 ([1]; U937 cells cultured 2 hrs) | IC50, SMS activity ([1]; U937 cells cultured 2 hrs) | cell viability ([2]; 48 hours) | U937 cell death / cell viability ([6]; 48 hours)
1 | CCCC(=O)OCSC(=S)OC1CC2CC1C1CCCC21 (stereo not shown) [Prodrug 2, S-methyleneoxybutyryl D609] | significantly greater | 333.43 µM | 44.26 µM | 87.10 µM | significantly greater reduction in cell viability and increase in the sub-G0/1 cells than D609-treated cells | 56.6 µM | – | – | – | –
2 | S=C([S-])OC1CC2CC1C1CCCC21.[K+] (stereo not shown) [Prodrug D609, Tricyclodecan-9-yl-xanthogenate] | time-dependent inhibition of SMS activity | 267.51 µM | 63.97 µM | 545.75 µM | capable of inducing apoptosis | 117 µM | ~4.05 | ~23.8 µg/mL | relatively resistant | induced significant cell death
